From ChEMBL document CHEMBL5316337, “Critical Role of Position 10 Residue in the Polymyxin Antimicrobial Activity” (J Med Chem, 2023) come the findings set out here.

≈ marks a conversion by molar mass, not a printed value.

Series [1] relates to Pseudomonas aeruginosa. The experiment in a line: Antibacterial activity against polymyxin-susceptible Pseudomonas aeruginosa FADD1-PA025 clinical isolates assessed as reduction in bacterial growth by broth microdilution method. The series is classed as functional.
The test system of series [2] is Acinetobacter baumannii. The experiment in a line: Antibacterial activity against Carbapenem-resistant Acinetobacter baumannii FADD1-AB034 clinical isolates assessed as reduction in bacterial growth by broth microdilution method. The series is classed as functional.
Series [3] has as its system Klebsiella pneumoniae. The experiment in a line: Antibacterial activity against Carbapenem-resistant Klebsiella pneumoniae FADD1-KP022 clinical isolates assessed as reduction in bacterial growth by broth microdilution method. The format is functional.
Series [4] in a line: Nephrotoxicity in Swiss mouse assessed as histopathological changes in kidney by measuring semiquantitative score at 12 mg/kg, sc administered as free base every 2 hrs for 6 doses and measured at 20 hrs. The format is toxicity, organism-based. The settings on record: in vivo.
Series [5] relates to Acinetobacter baumannii. The experiment in a line: Antibacterial activity against polymyxin-susceptible Acinetobacter baumannii ATCC 17978 clinical isolates assessed as reduction in bacterial growth by broth microdilution method. The series is classed as functional.
Series [6] deals with Klebsiella pneumoniae. Nature of the series: Antibacterial activity against Carbapenem-resistant Klebsiella pneumoniae BM1 clinical isolates assessed as reduction in bacterial growth by broth microdilution method. The series is classed as functional.
Series [7] concerns Klebsiella pneumoniae. Nature of the series: Antibacterial activity against polymyxin-susceptible Klebsiella pneumoniae ATCC 700721 clinical isolates assessed as reduction in bacterial growth by broth microdilution method. The format is functional.
Series [8] relates to Acinetobacter baumannii. Nature of the series: Antibacterial activity against polymyxin-susceptible Acinetobacter baumannii ATCC 19606 clinical isolates assessed as reduction in bacterial growth by broth microdilution method. The format is functional.
In series [9] the test system is Klebsiella pneumoniae. The experiment in a line: Antibacterial activity against Carbapenem-resistant Klebsiella pneumoniae FADD1-KP032 clinical isolates assessed as reduction in bacterial growth by broth microdilution method. The series is classed as functional.
Series [10] concerns Pseudomonas aeruginosa. The experiment in a line: Antibacterial activity against polymyxin-susceptible Pseudomonas aeruginosa ATCC 27853 clinical isolates assessed as reduction in bacterial growth by broth microdilution method. The series is classed as functional.
The subject of series [11] is Pseudomonas aeruginosa. The experiment in a line: Antibacterial activity against Carbapenem-resistant Pseudomonas aeruginosa FADD1-PA001 clinical isolates assessed as reduction in bacterial growth by broth microdilution method. The format is functional.
The subject of series [12] is Enterobacter cloacae. The experiment in a line: Antibacterial activity against polymyxin-susceptible Enterobacter cloacae FADD1-EC006 clinical isolates assessed as reduction in bacterial growth by broth microdilution method. The series is classed as functional.
Series [13] deals with Pseudomonas aeruginosa. The experiment in a line: Antibacterial activity against Carbapenem-resistant Pseudomonas aeruginosa FADD1-PA022 clinical isolates assessed as reduction in bacterial growth by broth microdilution method. The series is classed as functional.
For series [14], the system named is Acinetobacter baumannii. The experiment in a line: Antibacterial activity against Carbapenem-resistant Acinetobacter baumannii FADD1-AB030 clinical isolates assessed as reduction in bacterial growth by broth microdilution method. The format is functional.
Series [15] concerns Enterobacter cloacae. Nature of the series: Antibacterial activity against polymyxin-susceptible Enterobacter cloacae FADD1-EC001 clinical isolates assessed as reduction in bacterial growth by broth microdilution method. The format is functional.
The subject of series [16] is Klebsiella pneumoniae. The experiment in a line: Antibacterial activity against Carbapenem-resistant Klebsiella pneumoniae FADD1-KP065 clinical isolates assessed as reduction in bacterial growth by broth microdilution method. The series is classed as functional.
Series [17] in a line: Acute toxicity in Swiss mouse assessed as maximum tolerated dose administered intravenously measured over 24 hrs. The settings on record: in vivo, route iv.
Series [18] deals with Enterobacter cloacae. Nature of the series: Antibacterial activity against polymyxin-susceptible Enterobacter cloacae FADD1-EC003 clinical isolates assessed as reduction in bacterial growth by broth microdilution method. The format is functional.
The test system of series [19] is Pseudomonas aeruginosa. Nature of the series: Antibacterial activity against polymyxin-susceptible Pseudomonas aeruginosa FADD1-PA038 clinical isolates assessed as reduction in bacterial growth by broth microdilution method. The series is classed as functional.

`CCC[C@@H]1NC(=O)[C@H](CCN)NC(=O)[C@H](CCN)NC(=O)[C@H](CC(C)C)NC(=O)[C@@H](Cc2ccccc2)NC(=O)[C@H](CCN)NC(=O)[C@@H](NC(=O)[C@H](CCN)NC(=O)[C@@H](NC(=O)[C@H](CCN)NC(=O)CCCC[C@@H](C)CC)[C@@H](C)O)CCNC1=O`: the MIC with Pseudomonas aeruginosa [1] turned out to be 2 µg/mL (≈ 1.66 µM); in the series with Acinetobacter baumannii [2] it was 4 µg/mL (≈ 3.33 µM); in the series on Klebsiella pneumoniae [3], 0.5 µg/mL (≈ 0.416 µM); in the series with Acinetobacter baumannii [5] it was 4 µg/mL (≈ 3.33 µM); in the series with Klebsiella pneumoniae [6] it was 1 µg/mL (≈ 0.832 µM); with Klebsiella pneumoniae [7] it was 2 µg/mL (≈ 1.66 µM). Further, the MIC with Acinetobacter baumannii [8] was 4 µg/mL (≈ 3.33 µM); in the series on Klebsiella pneumoniae [9], 1 µg/mL (≈ 0.832 µM); with Pseudomonas aeruginosa [10], 1 µg/mL (≈ 0.832 µM); with Pseudomonas aeruginosa [11], 1 µg/mL (≈ 0.832 µM); with Enterobacter cloacae [12], 2 µg/mL (≈ 1.66 µM); with Pseudomonas aeruginosa [13] it was 1 µg/mL (≈ 0.832 µM). Moreover, the MIC with Acinetobacter baumannii [14] came out at 0.5 µg/mL (≈ 0.416 µM); in the series with Enterobacter cloacae [15] it was 2 µg/mL (≈ 1.66 µM); in the series on Klebsiella pneumoniae [16] it was 0.5 µg/mL (≈ 0.416 µM); with Enterobacter cloacae [18] it was 2 µg/mL (≈ 1.66 µM); with Pseudomonas aeruginosa [19], 2 µg/mL (≈ 1.66 µM). Further, in series [4], the Activity is given as 0. Besides, in [17], the MTD at 24 h stood at 4.1 mg/kg.
Regarding `CC[C@H](C)CCCCC(=O)N[C@@H](CCN)C(=O)N[C@H](C(=O)N[C@@H](CCN)C(=O)N[C@H]1CCNC(=O)[C@H](CC)NC(=O)[C@H](CCN)NC(=O)[C@H](CCN)NC(=O)[C@H](CC(C)C)NC(=O)[C@@H](Cc2ccccc2)NC(=O)[C@H](CCN)NC1=O)[C@@H](C)O`, the MIC was 1 µg/mL (≈ 0.842 µM) with Pseudomonas aeruginosa [1]; 2 µg/mL (≈ 1.68 µM) with Acinetobacter baumannii [2]; 0.25 µg/mL (≈ 0.211 µM) with Klebsiella pneumoniae [3]; 2 µg/mL (≈ 1.68 µM) in the series on Acinetobacter baumannii [5]; 0.5 µg/mL (≈ 0.421 µM) in the series with Klebsiella pneumoniae [6]; 4 µg/mL (≈ 3.37 µM) in the series with Klebsiella pneumoniae [7]. Also, the MIC in the series on Acinetobacter baumannii [8] was 2 µg/mL (≈ 1.68 µM); with Klebsiella pneumoniae [9], 1 µg/mL (≈ 0.842 µM); in the series on Pseudomonas aeruginosa [10] it was 1 µg/mL (≈ 0.842 µM); in the series on Pseudomonas aeruginosa [11] it was 1 µg/mL (≈ 0.842 µM); in the series with Enterobacter cloacae [12], 4 µg/mL (≈ 3.37 µM); in the series on Pseudomonas aeruginosa [13] it was 1 µg/mL (≈ 0.842 µM). In addition, the MIC with Acinetobacter baumannii [14] was found to be 1 µg/mL (≈ 0.842 µM); in the series with Enterobacter cloacae [15] it was 2 µg/mL (≈ 1.68 µM); in the series with Klebsiella pneumoniae [16] it was 0.5 µg/mL (≈ 0.421 µM); in the series with Enterobacter cloacae [18] it was 1 µg/mL (≈ 0.842 µM); with Pseudomonas aeruginosa [19], 2 µg/mL (≈ 1.68 µM). The Activity in [4] was 0. Besides, the MTD at 24 h in series [17] is 4.1 mg/kg.
